Data as given in patent US6905852B1, “Herbicide-resistant protoporphyrinogen oxidase isolated from Nicotiana tabacum” (Nihon Nohyaku Co., Ltd., priority 1997, dated 2005).

What was measured:
Experiment in all cases: Leaf disk method, bleaching
Assay type in all cases: cell-based, N. Tabacum var. SR1
[1] = tested on: non-transformed tobacco plant
Procedure: (§1) From the transformed plant with which the confirmation of introduction of gene was finished, and non-transformed plant used as a control, a leaf almost the same position of the leaf was picked and 9 mm diameter leaf disks were prepared, and floated on a dish in which 0, 125, 250, 1,250, 2,500, 5,000, 12,500 nM of compound A aqueous solution were contained. After incubation at 27° C. for one week under continuous strong light, the bleaching of the leaf disks was observed, and the permissive concentration to compound A was calculated. As a result (Table 7), in case that the tolerant type of protoporphirinogen oxidase cDNA from tobacco was introduced by pBI-NtPX-RC, more than 100 times of tolerance was observed comparing to the control non-transformed plant. However, in case that rsistant type cDNA from Arabidopsis thaliana was introduced by pBI-AtPX-RC, 4 times of resistance was observed comparing to the control, and in case that the wild type cDNA was introduced, high resistance was not observed in each case.

[2] = tested on: transformed tobacco plant, Arabidopsis thaliana resistant type (pBI-AtPX-RC)
Procedure: (§2) The A. tumefacience having the binary vector which had been stored at −80° C. was cultured with shaking at 27° C. for 24 hours in 523 liquid medium (1% sucrose, 0.8% Bacto-tryptone, 0.4% Bacto-yeast extract, 0.2% K2HPO4, 0.03% MgSO4.7H2O) containing kanamycin. A disk (9 mm diameter) of a tobacco (N. Tabacum var. SR1) leaf which had been surface sterilized was immersed for one minute into the culture of the A. tumefacience, and then the culture liquid attached thereon was removed with a sterilized paper towel. The leaf disk was transferred into MS agar medium containing 0.6% agar in which 2 ppm NAA and 0.2 ppm BA were added, with the reverse side of leaf being made upside, and incubated at 25° C. for 48 hours. The leaf disk was transferred into MS liquid medium containing 500 ppm carbenicillin, 200 ppm claforan, 2 ppm NAA and 0.2 ppm BA and cultured with shaking at 27° C. for 48-72 hours to remove A. tumefacience. The leaf disk was transferred into MS liquid medium containing 0.6% agar, 100 ppm of carbenycillin, 200 ppm of claforan and 150 ppm of kanamycin, 2 ppm NAA and 0.2 ppm BA and incubated at 27° C. for 2-3 weeks and formation of shoot was induced. The shoot was transferred into medium for root development (½ MS, 0.02 ppm IBA, 1.5% sucrose, 0.2% gellan gum) and development of root was introduced. The young plant thus obtained was transferred into culture soil, and was grown in a green house.
as §1

[3] = tested on: transformed tobacco plant, Arabidopsis thaliana wild type (pBI-AtPX-HC)
Procedure: as §2, §1

[4] = tested on: transformed tobacco plant, Tobacco resistant type (pBI-NtPX-RC)
Procedure: as §2, §1

[5] = tested on: transformed tobacco plant, Tobacco wild type (pBI-NtPX-HC)
Procedure: as §2, §1

CCOC(=O)COc1cc(-c2nn(C)c(OC(F)F)c2Cl)c(F)cc1Cl [Compound A, ethyl 2-chloro-5-(4-chloro-5-difluoromethoxy-1-methyl-1H-pyrazol-3-yl)-4-fluorophenoxyacetate]
Resistance ([1]; Introduced gene: None (reference)): 1 X
Permission conc. to compound A ([1]; Introduced gene: None, one week, continuous strong light): 125 nM
Permission conc. to compound A ([2]; Arabidopsis thaliana resistant type (pBI-AtPX-RC)): 500 nM
Resistance ([2]; Arabidopsis thaliana resistant type, vs non-transformed): 4 X
Permission conc. to compound A ([3]; Arabidopsis thaliana Wild type (pBI-AtPX-HC)): 250 nM
Resistance ([3]; Arabidopsis thaliana Wild type, vs non-transformed): 2 X
Permission conc. to compound A [4]: >12,500 nM
Permission conc. to compound A [5]: 500 nM
Resistance ([5]; vs non-transformed): 4 X
